Patent US4355026A, “4-Demethoxy,11-deoxy anthracycline derivatives” (priority 1980, dated 1982)
Converted amounts (≈) assume the structure as drawn. Read-outs that look alike come from different tables or passages of the source.

Legend:
[1] = test system: L1210 leukemia cells, DNA synthesis; experiment: Inhibition of DNA synthesis (14C-thymidine incorporation) of L1210 cultivated leukemic cells; assay type: cell-based; conditions: Mus musculus, L1210, 1 h, 14C-thymidine, 60 minutes, 37° C.; for IC50: read-out: IC50 DNA synthesis; for IC90: 90% inhibition, read-out: IC90 DNA synthesis
Procedure: (§1) A. Inhibitory Effect on Growth, DNA Synthesis and RNA Synthesis of L1210 Cultivated Leukemic Cells of Mice
(§2) Separately, the above L1210 cultivated cells were suspended in a concentration of 5×10^5 cells/ml in an RPMI 1640 medium containing 10% calf serum and cultivated for 1 to 2 hours in a CO2 incubator at 37° C. Then, representative test compounds were added in various concentrations, and 15 minutes later, ^14 C-uridine (0.05 μCi/ml) or ^14 C-thymidine (0.05 μCi/ml) were added. The cells were incubated at 37° C. for 60 minutes. A 10% aqueous trichloroacetic acid solution was added to the incubation medium to stop the reaction and simultaneously precipitate acid-insoluble matter. The acid-insoluble matter was washed three times with a 5 to 10% aqueous solution of trichloroacetic acid and then dissolved in formic acid. The radioactivity of the acid-insoluble matter was measured. From the ratio of incorporated radiation to that of a control group, the concentrations which inhibited radiation by 10%, 50% and 90% respectively were measured.

L1210 leukemia cells [2] = experiment: Inhibitory effect on growth of L1210 cultivated leukemic cells of mice; assay type: cell-based; conditions: Mus musculus, RPMI 1640, 20% calf serum, 37° C.
Procedure: as §1
For example, L1210 cells were inoculated in a concentration of 5×10^4 cells/ml in an RPMI 1640 culture medium (Roswell Park Memorial Institute 1640) containing 20% calf serum and, simultaneously, representative compounds of the present invention were added in a concentration of 0.1 and 0.5 μg/ml. The cells were cultivated in a CO2 generator at 37° C. The 50% growth inhibitory concentration with respect to a control group was then determined.

L1210 leukemia cells [3] = experiment: Antitumor activity on CDFI mouse leukemia induced by mouse L1210 leukemia cells; assay type: in vivo, CDFI mice; design: key to Toxicity: *: Toxicity-
Procedure: B. Antitumor Activity on CDFI Mouse Leukemia Induced by Mouse L1210 Leukemia cells
L1210 leukemia cells of mice were intraperitoneally transplanted in an amount of 1×10^5 cells/mouse in CDFI mice. Starting 24 hours after the transplantation, each of the test compounds was intraperitoneally administered to the mice for 10 consecutive days. the survival rate (T/C, %) was calculated in comparison with a control group (to which physiological saline was administered).

[4] = test system: L1210 leukemia cells, RNA synthesis; experiment: Inhibition of RNA synthesis (14C-uridine incorporation) of L1210 cultivated leukemic cells; assay type: cell-based; conditions: Mus musculus, L1210, 1 h, 14C-uridine, 60 minutes, 37° C.; for IC50: read-out: IC50 RNA synthesis; for IC90: 90% inhibition, read-out: IC90 RNA synthesis
Procedure: as §1, §2

[5] = test system: Bacillus subtilis NRRB- 558; experiment: MIC on nutrient agar medium; assay type: cell-based; conditions: NRRB558
From the text: (§3) The compounds of formula I provided by the present invention are also characterized by their antimicrobial activity. Table 3 summarizes the minimum inhibitory concentrations (MIC) of representative compounds of the present invention against various microorganisms on a nutrient agar medium.

Candida albicans 3147 = experiment: MIC on nutrient agar medium; assay type: cell-based
From the text: as §3

[6] = test system: Bacillus subtilis PCI 219; experiment: MIC on nutrient agar medium; assay type: cell-based; conditions: PCI219
From the text: as §3

[7] = test system: Bacillus cereus ATCC 10702; experiment: MIC on nutrient agar medium; assay type: cell-based; conditions: ATCC10702
From the text: as §3

Bacillus megatherium APF = experiment: MIC on nutrient agar medium; assay type: cell-based
From the text: as §3

[8] = test system: Shigella flexneri 46 JS 11811; experiment: MIC on nutrient agar medium; assay type: cell-based; conditions: 46JS11811
From the text: as §3

Escherichia coli NIHJ = experiment: MIC on nutrient agar medium; assay type: cell-based
From the text: as §3

[9] = test system: Corynebacterium bovis 1810; experiment: MIC on nutrient agar medium; assay type: cell-based
From the text: as §3

Microccus flavus FDA 16 = experiment: MIC on nutrient agar medium; assay type: cell-based
From the text: as §3

[10] = test system: Mycobacterium smegmatis ATCC 607; experiment: MIC on nutrient agar medium; assay type: cell-based; conditions: Mycolicibacterium smegmatis, ATCC607
From the text: as §3

Sarcina lutea PCI 1001 = experiment: MIC on nutrient agar medium; assay type: cell-based; conditions: Micrococcus luteus, PCI1001
From the text: as §3

[11] = test system: Staphylococcus aureus FDA 209; experiment: MIC on nutrient agar medium; assay type: cell-based; conditions: FDA209
From the text: as §3

Salmonella typhi T - 63 = experiment: MIC on nutrient agar medium; assay type: cell-based; conditions: Salmonella enterica
From the text: as §3

[12] = test system: Microccus lysodeikticus IFQ 3333; experiment: MIC on nutrient agar medium; assay type: cell-based
From the text: as §3

[13] = test system: Klebsiella pneumonia PCI 602; experiment: MIC on nutrient agar medium; assay type: cell-based; conditions: Klebsiella pneumoniae, PCI602
From the text: as §3

[14] = test system: Pseudomonas aeruginosa A3; experiment: MIC on nutrient agar medium; assay type: cell-based
From the text: as §3

[15] = test system: Staphylococcus aureus smith; experiment: MIC on nutrient agar medium; assay type: cell-based
From the text: as §3

[16] = L1210, 24 h, 1 day later, read-out: IC50 growth, 1 day later
[17] = L1210, 48 h, 2 days later, read-out: IC50 growth, 2 days later
[18] = 0.15 mg/kg/day, intraperitoneal, 10 consecutive days
[19] = 0.3 mg/kg/day, intraperitoneal, 10 consecutive days
[20] = 0.6 mg/kg/day, intraperitoneal, 10 consecutive days
[21] = 1.25 mg/kg/day, intraperitoneal, 10 consecutive days
[22] = 2.5 mg/kg/day, intraperitoneal, 10 consecutive days

Row | SMILES | IC50 [1] [µg/mL] | IC90 [1] [µg/mL] | IC50 (L1210 leukemia cells [2]; [16]) [µg/mL] | IC50 (L1210 leukemia cells [2]; [17]) [µg/mL] | IC50 [4] [µg/mL] | IC90 [4] [µg/mL] | MIC [5] [µg/mL] | MIC (Candida albicans 3147) [µg/mL] | MIC [6] [µg/mL] | MIC [7] [µg/mL] | MIC (Bacillus megatherium APF) [µg/mL] | MIC [8] [µg/mL] | MIC (Escherichia coli NIHJ) [µg/mL] | MIC [9] [µg/mL] | MIC (Microccus flavus FDA 16) [µg/mL] | MIC [10] [µg/mL] | MIC (Sarcina lutea PCI 1001) [µg/mL] | MIC [11] [µg/mL] | MIC (Salmonella typhi T - 63) [µg/mL] | MIC [12] [µg/mL] | further results
1 | C[C@@H]1O[C@@H](O[C@H]2C[C@](O)(C(=O)CO)Cc3cc4c(c(O)c32)C(=O)c2ccccc2C4=O)C[C@H](N)[C@@H]1O (single isomer, unassigned; isomer 4) [4-Demethoxy-11-deoxy-adriamycin (7S,9S,1'α)isomer, 4-Demethoxy-11-deoxyadriamycin] | 0.64 (≈ 1.29 µM) | 5.6 (≈ 11.3 µM) | 0.07 (≈ 0.141 µM) | 0.03 (≈ 0.0603 µM) | 0.8 (≈ 1.61 µM) | 4.6 (≈ 9.25 µM) | 12.5 (≈ 25.1 µM) | > 100 | 12.5 (≈ 25.1 µM) | 25 (≈ 50.3 µM) | 12.5 (≈ 25.1 µM) | > 100 | > 100 | 100 (≈ 201 µM) | 50 (≈ 101 µM) | 12.5 (≈ 25.1 µM) | 100 (≈ 201 µM) | 100 (≈ 201 µM) | > 100 | 50 (≈ 101 µM) | Survival rate (T/C, %) (L1210 leukemia cells [3]; [18]): 135%; Survival rate (T/C, %) (L1210 leukemia cells [3]; [19]): 162%; Survival rate (T/C, %) (L1210 leukemia cells [3]; [20]): 184%; Survival rate (T/C, %) (L1210 leukemia cells [3]; [21]): 308%; Survival rate (T/C, %) (L1210 leukemia cells [3]; [22]): 177%; Toxicity (L1210 leukemia cells [3]; [22]): *; antitumor activity on experimental animal tumors (in words) (L1210 leukemia cells [3]; experimental animal tumors): particularly noteworthy; MIC [13]: > 100 µg/mL; MIC [14]: > 100 µg/mL; MIC [15]: 12.5 µg/mL (≈ 25.1 µM)
2 | CC(=O)[C@@]1(O)Cc2cc3c(c(O)c2[C@H](O[C@H]2C[C@H](N)[C@H](O)[C@H](C)O2)C1)C(=O)c1ccccc1C3=O (single isomer, unassigned; isomer 4) [4-Demethoxy-11-deoxy-daunomycin (7R,9R,1'α)isomer, 4-Demethoxy-11-deoxydaunomycin] | 5.4 (≈ 11.2 µM) | 13 (≈ 27 µM) | > 2.5 | > 2.5 | 9 (≈ 18.7 µM) | > 10 | 50 (≈ 104 µM) | > 100 | 100 (≈ 208 µM) | 50 (≈ 104 µM) | 50 (≈ 104 µM) | > 100 | > 100 | 100 (≈ 208 µM) | > 100 | 100 (≈ 208 µM) | 50 (≈ 104 µM) | > 100 | > 100 | > 100 | MIC [13]: > 100 µg/mL; MIC [14]: > 100 µg/mL; MIC [15]: > 100 µg/mL
3 | CC(=O)[C@]1(O)Cc2cc3c(c(O)c2[C@@H](O[C@H]2C[C@H](N)[C@H](O)[C@H](C)O2)C1)C(=O)c1ccccc1C3=O (single isomer, unassigned; isomer 4) [4-Demethoxy-11-deoxy-daunomycin (7S,9S,1'α)isomer, 4-Demethoxy-11-deoxydaunomycin] | 0.22 (≈ 0.457 µM) | 2.5 (≈ 5.19 µM) | 0.09 (≈ 0.187 µM) | 0.01 (≈ 0.0208 µM) | 0.34 (≈ 0.706 µM) | 2.5 (≈ 5.19 µM) | 6.25 (≈ 13 µM) | 100 (≈ 208 µM) | 3.12 (≈ 6.48 µM) | 12.5 (≈ 26 µM) | 6.25 (≈ 13 µM) | 100 (≈ 208 µM) | > 100 | 6.25 (≈ 13 µM) | 6.25 (≈ 13 µM) | 12.5 (≈ 26 µM) | 6.25 (≈ 13 µM) | 25 (≈ 51.9 µM) | > 100 | 12.5 (≈ 26 µM) | Survival rate (T/C, %) (L1210 leukemia cells [3]; [18]): 103%; Survival rate (T/C, %) (L1210 leukemia cells [3]; [19]): 115%; Survival rate (T/C, %) (L1210 leukemia cells [3]; [20]): 115%; Survival rate (T/C, %) (L1210 leukemia cells [3]; [21]): 135%; Survival rate (T/C, %) (L1210 leukemia cells [3]; [22]): 160%; MIC [13]: 100 µg/mL (≈ 208 µM); MIC [14]: > 100 µg/mL; MIC [15]: 12.5 µg/mL (≈ 26 µM)
